According to patent US12077503B2, “Substituted cyclic amides and their use as herbicides” (FMC CORPORATION, priority 2015, dated 2024):

Tests used:
Format in all cases: in vivo
[1] = tested on: blackgrass (Alopecurus myosuroides); test: Test A postemergence
Outline: (§1)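 In a loam soil and sand blend, planted seeds got a preemergence directed soil spray, and young plants at the one- to two-leaf stage, 2–10 cm high, got a postemergence application; ~10 d greenhouse hold; injury rated visually, 0 = none, 100 = complete control.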

[2] = tested on: ragweed (common ragweed, Ambrosia elatior); test: Test A postemergence
Outline: as §1

[3] = tested on: barnyardgrass (Echinochloa crus-galli); test: Test A postemergence
Outline: as §1

Kochia (Kochia scoparia) [4] = test: Test A postemergence
Outline: as §1

[5] = tested on: pigweed (Amaranthus retroflexus); test: Test A postemergence
Outline: as §1

[6] = tested on: Galium (catchweed bedstraw, Galium aparine); test: Test A postemergence
Outline: as §1

[7] = tested on: ryegrass, Italian (Italian ryegrass, Lolium multiflorum); test: Test A postemergence
Outline: as §1

[8] = tested on: giant foxtail (Setaria faberii); test: Test A postemergence
Outline: as §1

[9] = tested on: wheat (Triticum aestivum); test: Test A postemergence
Outline: as §1

corn (Zea mays) = test: Test A postemergence
Outline: as §1

[10] = tested on: sedge, umbrella (small-flower umbrella sedge, Cyperus difformis); test: Test B flooded paddy test; conditions: Flood, 250 g ai/ha; 0 to 100 scale where 0 is no effect and 100 is complete control; 13 to 15 d
Outline: (§2)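 Evaluation by eye, against controls, occurred 13–15 d post-treatment in a greenhouse, using a 0 (no effect) to 100 (complete control) scale. Application was into the paddy water, 3 cm deep over the soil, on 2-leaf plants.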

[11] = tested on: barnyardgrass (Echinochloa crus-galli); test: Test B flooded paddy test; conditions: Flood, 250 g ai/ha; 0 to 100 scale where 0 is no effect and 100 is complete control; 13 to 15 d
Outline: as §2

rice (Oryra sativa) = test: Test B flooded paddy test; conditions: Flood, 250 g ai/ha; 0 to 100 scale where 0 is no effect and 100 is complete control; 13 to 15 d
Outline: as §2

[12] = tested on: ducksalad (Heteranthera limosa); test: Test B flooded paddy test; conditions: Flood, 250 g ai/ha; 0 to 100 scale where 0 is no effect and 100 is complete control; 13 to 15 d
Outline: as §2

[13] = tested on: ragweed (common ragweed, Ambrosia elatior); test: Test A preemergence; conditions: for Plant response rating, Ragweed: preemergence
Outline: as §1

[14] = tested on: barnyardgrass (Echinochloa crus-galli); test: Test A preemergence
Outline: as §1

Kochia (Kochia scoparia) [15] = test: Test A preemergence
Outline: as §1

[16] = tested on: pigweed (Amaranthus retroflexus); test: Test A preemergence; conditions: for Plant response rating, Pigweed: preemergence
[17] = tested on: ryegrass, Italian (Italian ryegrass, Lolium multiflorum); test: Test A preemergence; conditions: for Plant response rating, Ryegrass, Italian: preemergence
Outline: as §1

[18] = tested on: giant foxtail (Setaria faberii); test: Test A preemergence
Outline: as §1

[19] = 500 g ai/ha, postemergence, 0 to 100 scale, 0 no effect, 100 complete control
[20] = Postemergence, 125 g ai/ha, visual injury, 0 to 100 scale (0 no effect, 100 complete control), approx. 10 d
[21] = 125 g ai/ha, 0 to 100 scale (0 no effect, 100 complete control)
[22] = Preemergence, 500 g ai/ha, 0 is no effect, 100 is complete control
[23] = 125 g ai/ha, preemergence, 0 to 100 scale (0 no effect, 100 complete control)
[24] = 125 g ai/ha, postemergence, visual rating after approx. 10 d, 0 to 100 scale (0 no effect, 100 complete control)
[25] = 500 g ai/ha, postemergence, visual injury, 0 to 100 scale (0 no effect, 100 complete control), approx. 10 d
[26] = 125 g ai/ha, postemergence, visual injury after approximately 10 d, 0 to 100 scale (0 no effect, 100 complete control)
[27] = 125 g ai/ha, visual rating after approx. 10 d, 0 to 100 scale where 0 is no effect and 100 is complete control
[28] = 500 g ai/ha, 0 to 100 scale, 0 = no effect, 100 = complete control
[29] = 125 g ai/ha, Preemergence, visual injury after approximately 10 d, 0 to 100 scale where 0 is no effect and 100 is complete control
[30] = 500 g ai/ha, preemergence, 0 to 100 scale, 0 = no effect, 100 = complete control

## Cc1ccc(C2CNC(=O)C2C(=O)Nc2cccc(F)c2F)cc1F (racemic) [Compound 369]
[1]; [19]
  Plant response rating, Blackgrass: 70
[1]; [20]
  Plant response rating, Blackgrass: 30
[2]; [19]
  Plant response rating, Ragweed: 30
[2]; [20]
  Plant response rating, Ragweed: 0
[3]; [19]
  Plant response rating, Barnyardgrass: 90
[3]; [20]
  Plant response rating, Barnyardgrass: 90
Kochia (Kochia scoparia) [4]; [19]
  Plant response rating, Kochia: 60
Kochia (Kochia scoparia) [4]; [20]
  Plant response rating, Kochia: 20
[5]; [19]
  Plant response rating, Pigweed: 0
[5]; [20]
  Plant response rating, Pigweed: 0
[6]; [19]
  Plant response rating, Galium: 70
[6]; [20]
  Plant response rating, Galium: 60
[7]; [19]
  Plant response rating, Ryegrass, Italian: 50
[7]; [20]
  Plant response rating, Ryegrass, Italian: 20
[8]; [19]
  Plant response rating, Foxtail, Giant: 80
[8]; [20]
  Plant response rating, Foxtail, Giant: 20
[9]; [19]
  Plant response rating, Wheat: 60
[9]; [20]
  Plant response rating, Wheat: 0
Corn (Zea mays); [19]
  Plant response rating, Corn: 50
Corn (Zea mays); [20]
  Plant response rating, Corn: 0
[10]
  Plant response rating, Sedge, Umbrella: 0
[11]
  Plant response rating, Barnyardgrass: 20
Rice (Oryra sativa)
  Plant response rating, Rice: 0
[12]
  Plant response rating, Ducksalad: 100
[13]; [21]
  Plant response rating, Ragweed: 60
[13]; [22]
  Ragweed plant response rating (0 to 100 scale): 60
[14]; [23]
  Plant response rating, Barnyardgrass: 90
[14]; [22]
  Barnyardgrass plant response rating (0 to 100 scale): 90
Kochia (Kochia scoparia) [15]; [23]
  Plant response rating, Kochia: 50
Kochia (Kochia scoparia) [15]; [22]
  Kochia plant response rating (0 to 100 scale): 40
[16]; [21]
  Plant response rating, Pigweed: 0
[16]; [22]
  Pigweed plant response rating (0 to 100 scale): 0
[17]; [21]
  Plant response rating, Ryegrass, Italian: 0
[17]; [22]
  Ryegrass, Italian plant response rating (0 to 100 scale): 20
[18]; [23]
  Plant response rating, Foxtail, Giant: 90
[18]; [22]
  Foxtail, Giant plant response rating (0 to 100 scale): 90

## O=C1NCC(c2cccc(Br)c2)C1C(=O)Nc1cccc(F)c1F (racemic) [Compound 688]
[1]; [24]
  Plant response rating, Blackgrass: 50
[1]; [25]
  Plant response rating, Blackgrass: 60
[2]; [26]
  Plant response rating, Ragweed: 30
[2]; [25]
  Plant response rating, Ragweed: 50
[3]; [24]
  Plant response rating, Barnyardgrass: 90
[3]; [25]
  Plant response rating, Barnyardgrass: 90
Kochia (Kochia scoparia) [4]; [26]
  Plant response rating, Kochia: 40
Kochia (Kochia scoparia) [4]; [25]
  Plant response rating, Kochia: 60
[5]; [26]
  Plant response rating, Pigweed: 30
[5]; [25]
  Plant response rating, Pigweed: 50
[6]; [26]
  Plant response rating, Galium: 40
[6]; [25]
  Plant response rating, Galium: 50
[7]; [26]
  Plant response rating, Ryegrass, Italian: 40
[7]; [25]
  Plant response rating, Ryegrass, Italian: 60
[8]; [26]
  Plant response rating, Foxtail, Giant: 90
[8]; [25]
  Plant response rating, Foxtail, Giant: 90
[9]; [26]
  Plant response rating, Wheat: 20
[9]; [25]
  Plant response rating, Wheat: 70
Corn (Zea mays); [26]
  Plant response rating, Corn: 40
Corn (Zea mays); [25]
  Plant response rating, Corn: 70
[10]
  Plant response rating, Sedge, Umbrella: 0
[11]
  Plant response rating, Barnyardgrass: 35
Rice (Oryra sativa)
  Plant response rating, Rice: 0
[12]
  Plant response rating, Ducksalad: 100
[13]; [27]
  Plant response rating, Ragweed: 20
[13]; [28]
  Plant response rating, Ragweed: 40
[14]; [29]
  Plant response rating, Barnyardgrass: 90
[14]; [30]
  Plant response rating, Barnyardgrass: 90
Kochia (Kochia scoparia) [15]; [29]
  Plant response rating, Kochia: 30
Kochia (Kochia scoparia) [15]; [30]
  Plant response rating, Kochia: 50
[16]; [27]
  Plant response rating, Pigweed: 30
[16]; [28]
  Plant response rating, Pigweed: 40
[17]; [27]
  Plant response rating, Ryegrass, Italian: 0
[17]; [28]
  Plant response rating, Ryegrass, Italian: 20
[18]; [29]
  Plant response rating, Foxtail, Giant: 90
[18]; [30]
  Plant response rating, Foxtail, Giant: 90
